Laboratory results from patent US20070054916A1, “Aryl nitrogen-containing bicyclic compounds and methods of use” (Amgen Inc., priority 2004, published 2007).

What follows are molecules tested on production of TNF by monocytes activated with bacterial lipopolysaccharide (LPS) (assay: Lipopolysaccharide-activated monocyte TNF production assay). Settings: Homo sapiens, read-out: IC50 values in the monocyte assay (LPS induced TNF release).
Type: cell-based
Method: Lipopolysaccharide-Activated Monocyte TNF Production Assay
Test compounds were evaluated in vitro for the ability to inhibit the production of TNF by monocytes activated with bacterial lipopolysaccharide (LPS). Fresh residual source leukocytes (a byproduct of plateletpheresis) were obtained from a local blood bank, and peripheral blood mononuclear cells (PBMCs) were isolated by density gradient centrifugation on Ficol-Paque Plus (Pharmacia). PBMCs were suspended at 2×10^6/ml in DMEM supplemented to contain 2% FCS, 10 mM, 0.3 mg/ml […], 100 U/ml penicillin G and […] streptomycin sulfate (complete media). Cells were plated into Falcon flat bottom, 96 well culture plates (200 μl/well) and cultured overnight at 37° C. and 6% CO2. Non-adherent cells were removed by washing with 200 μl/well of fresh medium. Wells containing adherent cells (˜70% monocytes) were replenished with 100 μl of fresh medium.
Preparation of Test Compound Stock Solutions
Test compounds were dissolved in […]. Compound stock solutions were prepared to an initial concentration of […]. Stocks were diluted initially to 20-200 μM in complete media. Nine two-fold serial dilutions of each compound were then prepared in complete medium.
Treatment of Cells with Test Compounds and Activation of TNF Production with Lipopolysaccharide
One hundred microliters of each test compound dilution were added to microtiter wells containing adherent monocytes and 100 μl complete medium. Monocytes were cultured with test compounds for 60 min at which time 25 μl of complete medium containing 30 ng/ml lipopolysaccharide from E. coli K532 were added to each well. Cells were cultured an additional 4 hrs. Culture supernatants were then removed and TNF presence in the supernatants was quantified using an ELISA.
Flat bottom, 96 well Corning High Binding ELISA plates were coated overnight (4° C.) with 150 μL/well of 3 μg/ml murine anti-human TNF-α MAb (R&D Systems #MAB210). Wells were then blocked for 1 hr at room temperature with 200 μL/well of CaCl2-free ELISA buffer supplemented to contain 20 mg/ml BSA (standard ELISA buffer: […], 150 mM NaCl, 2 mM CaCl2, 0.15 mM thimerosal, pH 7.4). Plates were washed and replenished with 100 μl of test supernatants (diluted 1:3) or standards. Standards consisted of eleven 1.5-fold serial dilutions from a stock of 1 ng/ml recombinant human TNF (R&D Systems). Plates were incubated at room temperature for 1 hr on orbital shaker (300 rpm), washed and replenished with 100 μl/well of 0.5 ug/ml goat anti-human TNF-α (R&D systems #AB-210-NA) biotinylated at a 4:1 ratio. Plates were incubated for 40 min, washed and replenished with 100 μl/well of alkaline phosphatase-conjugated streptavidin (Jackson ImmunoResearch #016-050-084) at 0.02 ug/ml. Plates were incubated 30 min, washed and replenished with 200 μl/well of 1 mg/ml of p-nitrophenyl phosphate. After 30 min, plates were read at 405 nm on a Vmax plate reader.
Standard curve data were fit to a second order polynomial and unknown TNF-α concentrations determined from their OD by solving this equation for concentration. TNF concentrations were then plotted vs. test compound concentration using a second order polynomial. This equation was then used to calculate the concentration of test compounds causing a 50% reduction in TNF production.
Molecule `COc1ccc(C(F)(F)F)cc1NC(=O)c1ccc(C)c(-c2ccc3nc(N)ncc3c2)c1` [Example 41, 3-(2-amino-6-quinazolinyl)-4-methyl-N-(2-(methyloxy)-5-(trifluoromethyl)phenyl)benzamide] has an IC50 of at most 25 µM. `O=C(Nc1cccc(C(F)(F)F)c1)c1cccc(-c2ccc3ccnc(O)c3c2)c1` [Example 51, 3-(1-hydroxy-7-isoquinolinyl)-N-(3-(trifluoromethyl)phenyl)benzamide] gave an IC50 of at most 25 µM. Work on `Nc1ncc2cc(-c3cccc(C(=O)Nc4cccc(C(F)(F)F)c4)c3)ccc2n1` [Example 52, 3-(2-amino-6-quinazolinyl)-N-(3-(trifluoromethyl)phenyl)benzamide] yielded an IC50 of at most 25 µM. For `CNc1ncc2cc(-c3cccc(C(=O)Nc4cccc(C(F)(F)F)c4)c3)ccc2n1` [Example 53, 3-(2-(methylamino)-6-quinazolinyl)-N-(3-(trifluoromethyl)phenyl)benzamide], the IC50 was at most 25 µM. `Nc1ncc2cc(-c3cccc(C(=O)Nc4cc(C(F)(F)F)ccc4N4CCCCC4)c3)ccc2n1` [Example 54, 3-(2-amino-6-quinazolinyl)-N-(2-(1-piperidinyl)-5-(trifluoromethyl)phenyl)benzamide] gave an IC50 of at most 25 µM. Work on `CN(C)CCOc1ccc(-c2ccc3nc(N)ncc3c2)cc1C(=O)Nc1cccc(C(F)(F)F)c1` [Example 57, 5-(2-amino-6-quinazolinyl)-2-((2-(dimethylamino)ethyl)oxy)-N-(3-(trifluoromethyl)phenyl)benzamide] yielded an IC50 of at most 25 µM. In the case of `CN1CCC(c2cc(NC(=O)c3csc(-c4ccc5nc(N)ncc5c4)c3)cc(C(F)(F)F)c2)CC1` [Example 58, 5-(2-amino-6-quinazolinyl)-N-(3-(1-methyl-4-piperidinyl)-5-(trifluoromethyl)phenyl)-3-thiophenecarboxamide], the IC50 is reported as at most 25 µM. With `CN(C)CCCN(C)c1c(Cl)cc(C(F)(F)F)cc1NC(=O)c1cc(-c2ccc3nc(N)ncc3c2)ccc1F` [Example 59, 5-(2-amino-6-quinazolinyl)-N-(3-chloro-2-((3-(dimethylamino)propyl)(methyl)amino)-5-(trifluoromethyl)phenyl)-2-fluorobenzamide] the IC50 was at most 25 µM. `Cc1ccc(NC(=O)c2ccc(C)c(-c3ccc4nc(N)ncc4c3)c2)cc1NC(=O)CN1CCOCC1` [Example 62, 3-(2-amino-6-quinazolinyl)-4-methyl-N-(4-methyl-3-((4-morpholinylacetyl)amino)phenyl) benzamide] showed an IC50 of at most 25 µM. With `CCN(CC)CC(=O)Nc1cccc(NC(=O)c2ccc(C)c(-c3ccc4nc(N)ncc4c3)c2)c1C` [Example 63, 3-(2-amino-6-quinazolinyl)-N-(3-((N,N-diethylglycyl)amino)-2-methyiphenyl)-4-methylbenzamide] the IC50 was at most 25 µM. With `CCN(CC)CC(=O)N1CC(C)(C)c2ccc(NC(=O)c3ccc(C)c(-c4ccc5nc(N)ncc5c4)c3)cc21` [Example 64, 3-(2-amino-6-quinazolinyl)-N-(1-(N,N-diethyiglycyl)-3,3-dimethyl-2,3-dihydro-1H-indol-6-yl)-4-methylbenzamide] the IC50 was at most 25 µM. With `Cc1ccc(C(=O)Nc2ccc3c(c2)N(C(=O)CN2CCOCC2)CC3(C)C)cc1-c1ccc2nc(N)ncc2c1` [Example 65, 3-(2-amino-6-quinazolinyl)-N-(3,3-dimethyl-1-(4-morpholinytacetyl)-2,3-dihydro-1H-indol-6-yl)-4-methylbenzamide] the IC50 was at most 25 µM. With `Cc1ccc(C(=O)Nc2ccc(OCCCN(C)C)cc2)cc1-c1ccc2nc(N)ncc2c1` [Example 69, 3-(2-amino-6-quinazolinyl)-N-(4-((3-(dimethylamino)propyl)oxy)phenyl)-4-methylbenzamide] the IC50 was at most 25 µM. Work on `CCN(CC)CCOc1ccc(NC(=O)c2ccc(C)c(-c3ccc4nc(N)ncc4c3)c2)c(OC)c1` [Example 70, 3-(2-amino-6-quinazolinyl)-N-(4-((2-(diethylamino)ethyl)oxy)-2-(methyloxy)phenyl)-4-methylbenzamide] yielded an IC50 of at most 25 µM. `CCN(CC)CCOc1ccc(OC)c(NC(=O)c2ccc(C)c(-c3ccc4nc(N)ncc4c3)c2)c1` [Example 71, 3-(2-amino-6-quinazolinyl)-N-(5-((2-(diethylamino)ethyl)oxy)-2-(methyloxy)phenyl)-4-methylbenzamide] showed an IC50 of at most 25 µM. `Cc1ccc(C(=O)Nc2cc(C(F)(F)F)ccc2N2CCN(C)CC2)cc1-c1ccc2nc(N)ncc2c1` [Example 74, 3-(2-amino-6-quinazolinyl)-4-methyl-N-(2-(4-methyl-1-piperazinyl)-5-(trifluoromethyl)phenyl)benzamide] showed an IC50 of at most 25 µM. Work on `Cc1ccc(C(=O)Nc2cc(C(F)(F)F)ccc2N2CC[C@@H](N(C)C)C2)cc1-c1ccc2nc(N)ncc2c1` [Example 75, 3-(2-amino-6-quinazolinyl)-N-(2-((3R)-3-(dimethylamino)-1-pyrrolidinyl)-5-(trifluoromethyl)phenyl)-4-methylbenzamide] yielded an IC50 of at most 25 µM. Molecule `Cc1ccc(C(=O)Nc2cc(C(F)(F)F)ccc2N2CCCCC2)cc1-c1ccc2nc(N)ncc2c1` [Example 76, 3-(2-amino-6-quinazolinyl)-4-methyl-N-(2-(1-piperidinyl)-5-(trifluoromethyl)phenyl)benzamide] has an IC50 of at most 25 µM. Molecule `Cc1ccc(C(=O)Nc2cc(C(F)(F)F)ccc2C(F)(F)F)cc1-c1ccc2nc(N)ncc2c1` [Example 77, 3-(2-amino-6-quinazolinyl)-N-(2,5-bis(trifluoromethyl)phenyl)-4-methylbenzamide] has an IC50 of at most 25 µM. `Cc1ccc(C(=O)Nc2cc(C(C)(C)C)ccc2C(C)(C)C)cc1-c1ccc2nc(N)ncc2c1` [Example 78, 3-(2-amino-6-quinazolinyl)-N-(2,5-bis(1,1-dimethylethyl)phenyl)-4-methylbenzamide] was tested, and the IC50 was at most 25 µM. Molecule `Cc1ccc(C(=O)Nc2cc(C(F)(F)F)ccc2N2CCOCC2)cc1-c1ccc2nc(N)ncc2c1` [Example 79, 3-(2-amino-6-quinazolinyl)-4-methyl-N-(2-(4-morpholinyl)-5-(trifluoromethyl)phenyl)benzamide] has an IC50 of at most 25 µM. Molecule `Cc1ccc(C(=O)Nc2cc(C(F)(F)F)ccc2N2CCCC2)cc1-c1ccc2nc(N)ncc2c1` [Example 80, 3-(2-amino-6-quinazolinyl)-4-methyl-N-(2-(1-pyrrolidinyl)-5-(trifluoromethyl)phenyl)benzamide] has an IC50 of at most 25 µM. With `Cc1ccc(C(=O)Nc2cc(C(F)(F)F)ccc2N(C)C)cc1-c1ccc2nc(N)ncc2c1` [Example 81, 3-(2-amino-6-quinazolinyl)-N-(2-(dimethylamino)-5-(trifluoromethyl)phenyl)-4-methylbenzamide] the IC50 was at most 25 µM. `Cc1ccc(C(=O)Nc2cc(C(F)(F)F)ccc2C(C)(C)CN(C)C)cc1-c1ccc2nc(N)ncc2c1` [Example 83, 3-(2-amino-6-quinazolinyl)-N-(2-(2-(dimethylamino)-1,1-dimethylethyl)-5-(trifluoromethyl)phenyl)-4-methylbenzamide] was tested, and the IC50 was at most 25 µM. `CN(C)CCCN(C)c1ccc(C(F)(F)F)cc1NC(=O)c1cc(-c2ccc3nc(N)ncc3c2)ccc1F` [Example 84, 5-(2-amino-6-quinazolinyl)-N-(2-((3-(dimethylamino)propyl)(methyl)amino)-5-(trifluoromethyl)phenyl)-2-fluorobenzamide] showed an IC50 of at most 25 µM. With `Cc1ccc(C(=O)Nc2cc(C(F)(F)F)ccc2N(C)CCCN(C)C)cc1-c1ccc2nc(N)ncc2c1` [Example 114, 3-(2-amino-6-quinazolinyl)-N-(2-((3-(dimethylamino)propyl)(methyl)amino)-5-(trifluoromethyl)phenyl)-4-methylbenzamide] the IC50 was at most 25 µM.
